Experimental data: EP4772500A1, “NOVEL ISOXAZOLE COMPOUND AS TM4SF5-SPECIFIC INHIBITOR AND USE THEREOF” (Seoul National University R&DB Foundation, priority 2023, dated 2025)

Tests used:
TM4SF5 = biological target: T1, TM4SF5 (Homo sapiens, UniProt O14894); assay: 1,2-3H-Cholesterol binding to pulled-down TM4SF5; set-up: expressed in transfected cells; captured on streptavidin agarose; conditions: 1,2-3H-Cholesterol (50 µM); for IC50: Huh7KO Strep-TM4SF5 (FIG. 19e), read-out: concentration at which binding between TM4SF5 and cholesterol was reduced by 50%; for binding of TM4SF5 to cholesterol: drug 2.5 µM, 1 hour (FIG. 19c)
T1 sequence (O14894 1-197): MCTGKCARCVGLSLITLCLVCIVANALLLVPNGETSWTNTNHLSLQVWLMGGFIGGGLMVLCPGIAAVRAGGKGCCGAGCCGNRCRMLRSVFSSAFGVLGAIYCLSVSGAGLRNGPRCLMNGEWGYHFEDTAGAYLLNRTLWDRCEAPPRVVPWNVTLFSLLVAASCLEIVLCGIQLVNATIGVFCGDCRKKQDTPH
Description: (a) Expression vectors for a control vector, TM4SF1, TM4SF5 WT, and R113Q, C118/145A, H127A, and N138A mutants of TM4SF5 were injected into the HEK293FT cell line, which was confirmed not to express TM4SF5, and allowed to express for 48 hours. (b) Huh7KO cell lines, in which TM4SF5 was knocked out in Huh7, were stably infected with a retrovirus encoding pBabe-EV or pBabe-TM4SF5-HA. […] (d) Strep-EV, Strep-PD-L1 WT, and 3NQ (N192/200/219Q) and 4NQ (N35/192/200/219Q) N-glycosylation mutants were injected into Huh7 cells to be expressed. (e) Strep-EV and Strep-TM4SF5 expression vectors were injected into Huh7KO cells and allowed to express for 48 hours. (a-e) After obtaining cell extracts, TM4SF5-strep, TM4SF5-HA, or PD-L1-strep was pulled down with streptavidin agarose resin or anti-HA antibody from extracts containing 0.2, 0.25, or 1.0 mg of protein for each experimental condition. Each of the pulled-down beads was treated with ^14C-labelled ST-5-002 (10, 25, or various indicated concentrations, µM) for 1 hour in the presence or absence of 400 µM of cold ST-5-002 (a-b). Alternatively, they were treated with 1,2-^3H-Cholesterol (50 µM) alone or together with ST-3-001 (negative control compound), ST-5-001, or ST-5-002 (2.5 µM each) for 1 hour (c-e). For the experimental samples of each condition, radioactive isotope values were repeatedly measured using a TriCarb scintillation counter (PerkinElmer, Waltham, MA).

TM4SF5 and PD-L1 = biological target: T2, TM4SF5 and PD-L1 (Homo sapiens, UniProt O14894); assay: Pulldown: binding between TM4SF5 and PD-L1; format: cell-based; conditions: 2.5 µM, 24 hours, SNU449 (FIG. 17c)
T2 construct: expressed in transfected cells; host or cells: SNU449 cells stably expressing TM4SF5, additionally transfected with PD-L1-HA cDNA
T2 sequence (O14894 1-197): T1 sequence (O14894 1-197)
Description: Cells were cultured to ~60% density in a cell incubator at 37°C and 5% CO2, and then transfected using PEI and cultured in a cell incubator at 37°C for two days. After cultivation, cell extracts were obtained by the method described above. After precipitating a desired protein from the cell extracts using an immunoprecipitation method, the binding proteins were identified by the Western blot technique described above. Specifically, cells cultured in a 100 mm cell culture dish for two days were washed twice with PBS, and protease inhibitor cocktails (GenDepot, USA) were added to 500 µl of immunoprecipitation lysis buffer (0.5% Triton X-100 or Brij 58, 40 mM HEPES, 150 mM NaCl, 1 mM EDTA, pH 7.4), followed by treatment at 4°C for 15 minutes. After collecting the cells, centrifugation was performed at 12,000x g at 4°C for 15 minutes, and the supernatant was transferred to a new microcentrifuge tube to obtain a cell extract. Proteins therein were quantified using a BCA reagent (Thermo Scientifics, USA). An electrophoresis sample was prepared by adding 4x laemmli sample buffer to a portion of the quantified sample and boiling at 100°C for 5 minutes. For immunoprecipitation, Streptavidin Agarose Resin (Thermo Fisher Scientific) or anti-HA antibody-coated Sepharose beads were added in proportion to the quantified protein amount, followed by rotation at 4°C for 4 hours, and then centrifugation was performed at 7,000x g at 4°C for 5 minutes and the supernatant was discarded. […]
(a-b) The same number of SNU449-EV or SNU449-TM4SF5 cells were transferred to culture vessels and cultured overnight. […] From the cell extracts, Strep-TM4SF5 was pulled down with strep-agarose beads, and then Western blotting was performed using antibodies against the indicated proteins, or the intracellular localization and expression level of TM4SF5 (red fluorescence) and PD-L1 (green fluorescence) were confirmed with a fluorescence microscope through immunostaining along with DNA staining using DAPI.

IC50 (TM4SF5)	binding of TM4SF5 to cholesterol (TM4SF5)	binding between TM4SF5 and PD-L1 (TM4SF5 and PD-L1)	SMILES
0.787 µM	inhibited	decreased and inhibited	Cc1ccc(C(=O)Nc2ccc(-c3cc(-c4ccc(O)cc4)no3)cc2)cc1 [ST-5-002, N-(4-(3-(4-hydroxyphenyl)isoxazole-5-yl)phenyl)-4-methylbenzamide]
		inhibition	Cc1ccc(S(=O)(=O)Nc2ccc(C(=O)/C=C/c3ccc(O)cc3)cc2)cc1 [TSAHC, 4'-(p-toluenesulfonylamino)-4-hydroxychalcone, reference compound]
	not affected		COc1cccc(-c2cc(-c3ccc(NC(C)=O)cc3)no2)c1 [ST-3-001, N-(4-(5-(3-methoxyphenyl)isoxazole-3-yl)phenyl)acetamide]
6.15 µM	inhibited	decreased and inhibited	CC(=O)Nc1ccc(-c2cc(-c3ccc(O)cc3)no2)cc1 [ST-5-001, N-(4-(3-(4-hydroxyphenyl)isoxazole-5-yl)phenyl)acetamide]
